In ChEMBL document CHEMBL1909294, “Translating clinical findings into knowledge in drug safety evaluation--drug induced liver injury prediction system (DILIps)” (PLoS Comput Biol, 2011) one finds DILI positive/negative data, which are given here for 26 compounds.

In series [1] the test system is Hepatotoxicity.
Description: Drug Induced Liver Injury Prediction System (DILIps) validation dataset; compound DILI positive/negative as observed in LTKB-BD
Series [2] concerns Hepatotoxicity. This is another data set of the same source.
Description: Drug Induced Liver Injury Prediction System (DILIps) validation dataset; compound DILI positive/negative as observed in O'Brien data
Series [3] deals with Hepatotoxicity. This is another data set of the same source.
Description: Drug Induced Liver Injury Prediction System (DILIps) validation dataset; compound DILI positive/negative as observed in Pfizer data

Turning to `CC(c1cc2ccccc2s1)N(O)C(N)=O` (stereo not drawn) [ZILEUTON], the DILI positive/negative in the series with Hepatotoxicity [1], with Hepatotoxicity [2] and with Hepatotoxicity [3] was 1 throughout.
Consider `Nc1ccc(C(=O)O)c(O)c1` [AMINOSALICYLIC ACID], for which the DILI positive/negative in the series with Hepatotoxicity [1], in the series with Hepatotoxicity [2] and with Hepatotoxicity [3] was 1 each time.
For `Cc1cc(NS(=O)(=O)c2ccc(N)cc2)no1` [SULFAMETHOXAZOLE], the DILI positive/negative with Hepatotoxicity [1] (Liver) and in the series on Hepatotoxicity [2] (Liver) was 1 each time.
On to `C[C@@](Cc1ccc(O)c(O)c1)(NN)C(=O)O.O` [CARBIDOPA], for which the DILI positive/negative with Hepatotoxicity [1] was found to be 1; in the series with Hepatotoxicity [2], 0; in the series on Hepatotoxicity [3] it was 0.
In the case of `CS(=O)(=O)Nc1ccc([N+](=O)[O-])cc1Oc1ccccc1` [NIMESULIDE], the DILI positive/negative in the series with Hepatotoxicity [1] (Liver), with Hepatotoxicity [2] (Liver) and in the series on Hepatotoxicity [3] (Liver) was 1 in each case.
On to `CC(C)(C)c1ccc(C(O)CCCN2CCC(C(O)(c3ccccc3)c3ccccc3)CC2)cc1` (stereo not drawn) [TERFENADINE], for which the DILI positive/negative in the series on Hepatotoxicity [2] stood at 1; with Hepatotoxicity [3], 0.
Consider `C#CCN(C)Cc1ccccc1` [PARGYLINE], for which the DILI positive/negative in the series on Hepatotoxicity [2] and in the series with Hepatotoxicity [3] was 0 each time.
As for `Cc1nnc(NS(=O)(=O)c2ccc(N)cc2)s1` [SULFAMETHIZOLE], the DILI positive/negative in the series with Hepatotoxicity [2] and with Hepatotoxicity [3] was 1 throughout.
In the case of `CN(C)CCN(Cc1cccs1)c1ccccn1`, the DILI positive/negative with Hepatotoxicity [2] and with Hepatotoxicity [3] was 1 each time.
Consider `CN(C)C(=O)Oc1cc(OC(=O)N(C)C)cc(C(O)CNC(C)(C)C)c1` (stereo not drawn) [BAMBUTEROL], for which the DILI positive/negative in the series on Hepatotoxicity [2] and with Hepatotoxicity [3] was 0 each time.
Consider `O=C(O)CCCC[C@@H]1SC[C@@H]2NC(=O)N[C@@H]21` [BIOTIN], for which the DILI positive/negative with Hepatotoxicity [2] and with Hepatotoxicity [3] was 0 each time.
`CO[C@@H]1[C@@H](OC(N)=O)[C@@H](O)[C@H](Oc2ccc3c(O)c(NC(=O)c4ccc(O)c(CC=C(C)C)c4)c(=O)oc3c2C)OC1(C)C` [NOVOBIOCIN]: the DILI positive/negative in the series on Hepatotoxicity [2] and in the series on Hepatotoxicity [3] was 1 throughout.
With `Cc1ncc(CO)c(CO)c1O` [PYRIDOXINE], the DILI positive/negative in the series on Hepatotoxicity [2] (Liver) and in the series on Hepatotoxicity [3] (Liver) was 0 throughout.
Turning to `C[N+](C)(C)CCOP(=O)(O)OP(=O)([O-])OC[C@H]1O[C@@H](n2ccc(N)nc2=O)[C@H](O)[C@@H]1O` [CITICOLINE], the DILI positive/negative with Hepatotoxicity [2] and in the series with Hepatotoxicity [3] was 0 throughout.
As to `CCN(CC)C(=O)N1CCN(C)CC1` [DIETHYLCARBAMAZINE], the DILI positive/negative in the series on Hepatotoxicity [2] and with Hepatotoxicity [3] was 1 throughout.
`CCCCC1C(=O)N(c2ccccc2)N(c2ccccc2)C1=O` [PHENYLBUTAZONE]: the DILI positive/negative with Hepatotoxicity [2] (Liver) and with Hepatotoxicity [3] (Liver) was 1 each time.
Turning to `CC(=O)Oc1cc(C(C)C)c(OCCN(C)C)cc1C` [MOXISYLYTE], the DILI positive/negative was determined as 1 in the series on Hepatotoxicity [1] and 0 in the series with Hepatotoxicity [2].
Consider `NC(=O)OCC(COC(N)=O)c1ccccc1` [FELBAMATE], for which the DILI positive/negative in the series on Hepatotoxicity [1], in the series on Hepatotoxicity [2] and in the series with Hepatotoxicity [3] was 1 in each case.
Consider `CC(=O)Nc1ccc(O)cc1` [ACETAMINOPHEN], for which the DILI positive/negative with Hepatotoxicity [2] and with Hepatotoxicity [3] was 1 throughout.
On to `CC1=C(/C=C/C(C)=C/C=C/C(C)=C\C(=O)O)C(C)(C)CCC1` [ISOTRETINOIN], for which the DILI positive/negative with Hepatotoxicity [2] and in the series on Hepatotoxicity [3] was 1 each time.
As to `CCOC(=O)C(C)(C)Oc1ccc(Cl)cc1` [CLOFIBRATE], the DILI positive/negative in the series with Hepatotoxicity [2] and in the series with Hepatotoxicity [3] was 1 throughout.
Consider `CC(C)(Oc1ccc(C2CC2(Cl)Cl)cc1)C(=O)O` (stereo not drawn) [CIPROFIBRATE], for which the DILI positive/negative in the series on Hepatotoxicity [2] and in the series on Hepatotoxicity [3] was 1 each time.
Take `CNC(=O)Oc1ccc2c(c1)[C@]1(C)CCN(C)[C@@H]1N2C` [PHYSOSTIGMINE]: the DILI positive/negative with Hepatotoxicity [2] and in the series on Hepatotoxicity [3] was 0 each time.
In the case of `O=C1OCCN1/N=C/c1ccc([N+](=O)[O-])o1` [FURAZOLIDONE], the DILI positive/negative with Hepatotoxicity [2] and in the series with Hepatotoxicity [3] was 1 in each case.
In the case of `O=c1[nH]c(=O)n([C@@H]2O[C@H](CO)[C@@H](O)[C@@H]2F)cc1I` [FIALURIDINE], the DILI positive/negative in the series with Hepatotoxicity [1], in the series with Hepatotoxicity [2] and in the series on Hepatotoxicity [3] was 1 throughout.
As for `CC[N+](C)(CC)CCOC(=O)C(O)(c1ccccc1)C1CCCCC1` (stereo not drawn) [OXYPHENONIUM], the DILI positive/negative with Hepatotoxicity [2] and in the series with Hepatotoxicity [3] was 0 in each case.
